From patent publication US7553864B2, “Compounds for the treatment of inflammatory disorders and microbial diseases” (Schering Corporation, priority 2005, dated 2009)

target: T1, ADMP (ADAMTS-4-5) (Homo sapiens, UniProt O75173); assay: ADMP activity assay (procedures of WO00/05256); type: biochemical; settings: not given
T1 construct: purchased Calbiochem PF113
T1 sequence (O75173 213-837): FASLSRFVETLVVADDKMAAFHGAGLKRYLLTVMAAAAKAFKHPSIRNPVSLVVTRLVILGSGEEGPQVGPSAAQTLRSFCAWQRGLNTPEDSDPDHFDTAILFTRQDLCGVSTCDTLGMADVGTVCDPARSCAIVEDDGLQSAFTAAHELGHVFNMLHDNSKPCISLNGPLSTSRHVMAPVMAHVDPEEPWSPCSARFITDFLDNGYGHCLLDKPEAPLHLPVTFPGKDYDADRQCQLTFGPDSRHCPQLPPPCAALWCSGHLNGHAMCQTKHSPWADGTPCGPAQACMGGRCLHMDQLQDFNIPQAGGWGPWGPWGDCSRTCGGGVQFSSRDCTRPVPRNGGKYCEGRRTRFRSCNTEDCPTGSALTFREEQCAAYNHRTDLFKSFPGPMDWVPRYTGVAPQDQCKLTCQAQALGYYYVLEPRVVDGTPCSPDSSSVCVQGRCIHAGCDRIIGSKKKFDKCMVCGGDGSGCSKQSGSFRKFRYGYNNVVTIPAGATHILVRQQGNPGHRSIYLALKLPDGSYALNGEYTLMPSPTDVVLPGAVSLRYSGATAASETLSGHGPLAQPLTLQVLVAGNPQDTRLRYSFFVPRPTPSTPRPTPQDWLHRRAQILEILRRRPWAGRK
Text: The procedures of International Patent Publication WO00/05256 (published Feb. 3, 2000) were followed for detection of ADMP Activity and for measuring the IC50 of the compounds of the present invention. This was indicative of activity against a desintgrin and metallopropeinase thrombo spondin 4 and 5 (ADAMTS-4-5).
The enzyme was purchased commercially from Calbiochem (Cat# PF113) and the peptide substrate described in the patent was custom-ordered from AnaSpec.

Structure (SMILES)	IC50 [µM]
C[C@H](NC(=O)[C@H](O)[C@@H](O)C(=O)N1CCC(N2C(=O)Cc3ccccc32)CC1)c1ccc(Br)cc1 [Compound 165]	1 to 5

same assay, conditions: read-out: IC50 (ADMP inhibition)

Structure (SMILES)	IC50 [µM]
COc1cccc(N2CCN(C(=O)[C@H](O)[C@@H](O)C(=O)N[C@@H](C)c3ccc(Br)cc3)CC2)c1 [Compound 143]	0.09
C[C@H](NC(=O)[C@H](O)[C@@H](O)C(=O)N1CCC(S(=O)(=O)c2ccccc2)CC1)c1ccc(Br)cc1 [Compound 148]	0.047
C[C@H](NC(=O)[C@H](O)[C@@H](O)C(=O)N1CCC(Oc2ccccc2)CC1)c1ccc(Br)cc1 [Compound 149]	0.09
C[C@H](NC(=O)[C@H](O)[C@@H](O)C(=O)N1CCCC1c1nc2ccccc2s1)c1ccc(Br)cc1 (stereo partly drawn) [Compound 160]	0.16
O=C(NCc1ccc(I)cc1)[C@H](O)[C@@H](O)C(=O)N1CCc2ccccc2C1 [Compound 204]	0.09
COc1cc2c(cc1OC)CN(C(=O)[C@H](O)[C@@H](O)C(=O)N[C@@H](C)c1ccc(Br)cc1)CC2 [Compound 207]	0.096

same assay, conditions: read-out: IC50 rating (ADMP inhibitory activity)

Structure (SMILES)	IC50 [µM]
C[C@H](NC(=O)[C@H](O)[C@@H](O)C(=O)N(C)Cc1cc(Cl)cc(Cl)c1)c1ccc(Br)cc1 [Compound 139]	0.25 to 1
Cc1ccc(N2CCN(C(=O)[C@H](O)[C@@H](O)C(=O)N[C@@H](C)c3ccc(Br)cc3)CC2)cc1C [Compound 142]	0.25 to 1
COc1cccc(N2CCN(C(=O)[C@H](O)[C@@H](O)C(=O)N[C@@H](C)c3ccc(Br)cc3)CC2)c1 [Compound 143]	< 0.25
C[C@H](NC(=O)[C@H](O)[C@@H](O)C(=O)N1CCN(c2ccc(F)cc2F)CC1)c1ccc(Br)cc1 [Compound 144]	< 0.25
C[C@H](NC(=O)[C@H](O)[C@@H](O)C(=O)N1CCC(S(=O)(=O)c2ccccc2)CC1)c1ccc(Br)cc1 [Compound 148]	< 0.25
C[C@H](NC(=O)[C@H](O)[C@@H](O)C(=O)N1CCC(Oc2ccccc2)CC1)c1ccc(Br)cc1 [Compound 149]	< 0.25
C[C@H](NC(=O)[C@H](O)[C@@H](O)C(=O)N1CCN(c2ccc(O)cc2)CC1)c1ccc(Br)cc1 [Compound 150]	1 to 5
C[C@H](NC(=O)[C@H](O)[C@@H](O)C(=O)N1CCC(c2nc3ccccc3s2)CC1)c1ccc(Br)cc1 [Compound 151]	< 0.25
C[C@H](NC(=O)[C@H](O)[C@@H](O)C(=O)N1CCC2(CC1)C(=O)Nc1ccccc12)c1ccc(Br)cc1 [Compound 152]	1 to 5
C[C@H](NC(=O)[C@H](O)[C@@H](O)C(=O)N1CCC2(CCCNC2)CC1)c1ccc(Br)cc1 [Compound 158]	> 5
C[C@H](NC(=O)[C@H](O)[C@@H](O)C(=O)N1CCCC1c1nc2ccccc2s1)c1ccc(Br)cc1 (stereo partly drawn) [Compound 160]	< 0.25
COc1ccccc1N1CCN(C(=O)[C@H](O)[C@@H](O)C(=O)N[C@@H](C)c2ccc(Br)cc2)CC1 [Compound 164]	0.25 to 1
C[C@H](NC(=O)[C@H](O)[C@@H](O)C(=O)N1CCc2c([nH]c3ccccc23)C1)c1ccc(Br)cc1 [Compound 169]	0.25 to 1
C[C@H](NC(=O)[C@H](O)[C@@H](O)C(=O)N1CCCC1c1ccccc1)c1ccc(Br)cc1 (stereo partly drawn) [Compound 172]	0.25 to 1
C[C@H](NC(=O)[C@H](O)[C@@H](O)C(=O)N[C@@H]1c2ccccc2C[C@@H]1O)c1ccc(Br)cc1 [Compound 173]	> 5
C[C@H](NC(=O)[C@H](O)[C@@H](O)C(=O)N[C@H]1c2ccccc2C[C@H]1O)c1ccc(Br)cc1 [Compound 174]	> 5
C[C@H](NC(=O)[C@H](O)[C@@H](O)C(=O)N1Cc2ccccc2C1)c1ccc(Br)cc1 [Compound 175]	0.25 to 1
C[C@H](NC(=O)[C@H](O)[C@@H](O)C(=O)N(C)CCc1ccccc1)c1ccc(Br)cc1 [Compound 176]	0.25 to 1
O=C(NCc1ccc(C(F)(F)F)cc1)[C@H](O)[C@@H](O)C(=O)N1CCc2ccccc2C1 [Compound 180]	0.25 to 1
O=C(NCc1cccc(I)c1)[C@H](O)[C@@H](O)C(=O)N1CCc2ccccc2C1 [Compound 181]	> 5
O=C(NCc1ccc(Br)cc1)[C@H](O)[C@@H](O)C(=O)N1CCc2ccccc2C1 [Compound 184]	0.25 to 1

Structure (SMILES)	IC50 [µM]
O=C(NCc1cccc(Br)c1)[C@@H](O)[C@H](O)C(=O)N1CCc2ccccc2C1 [Compound 185]	> 5
CC(NC(=O)[C@H](O)[C@@H](O)C(=O)N1CCc2ccccc2C1)c1ccc(S(C)(=O)=O)cc1 (stereo partly drawn) [Compound 186]	> 5
C[C@@H](c1ccc(Br)cc1)N(C)C(=O)[C@@H](O)[C@H](O)C(=O)N1CCc2ccccc2C1 [Compound 187]	> 5
CN1CCC(N(C)C(=O)[C@@H](O)[C@H](O)C(=O)NCc2ccc(I)cc2)CC1 [Compound 189]	> 5
C[C@H](NC(=O)[C@H](O)[C@@H](O)C(=O)N1CCc2ccccc2C1)c1ccc(-c2cccc(N3CCCC3)c2)cc1 [Compound 196]	< 0.25
C[C@H](NC(=O)[C@H](O)[C@@H](O)C(=O)N1CCc2ccccc2C1)c1ccc(-c2ccc(O)cc2)cc1 [Compound 200]	< 0.25
CC(NC(=O)[C@H](O)[C@@H](O)C(=O)N1CCc2ccccc2C1)c1ccc(C(F)(F)F)cc1 (stereo partly drawn) [Compound 201]	0.25 to 1
O=C(NCc1ccc(I)cc1)[C@H](O)[C@@H](O)C(=O)N1CCc2ccccc2C1 [Compound 204]	< 0.25
C[C@H](NC(=O)[C@H](O)[C@@H](O)C(=O)N(C)C1Cc2ccccc2C1)c1ccc(Br)cc1 [Compound 206]	0.25 to 1
COc1cc2c(cc1OC)CN(C(=O)[C@H](O)[C@@H](O)C(=O)N[C@@H](C)c1ccc(Br)cc1)CC2 [Compound 207]	< 0.25
C[C@H](NC(=O)[C@H](O)[C@@H](O)C(=O)N1CCCC1c1cccc(Cl)c1)c1ccc(Br)cc1 (stereo partly drawn) [Compound 209]	< 0.25
O=C(NCc1cccc(Br)c1)C(O)C(O)C(=O)N1CCc2ccccc2C1 (stereo not drawn) [Compound 211]	> 5
O=C(NCc1cccc(I)c1)C(O)C(O)C(=O)N1CCc2ccccc2C1 (stereo not drawn) [Compound 212]	> 5
C[C@H](NC(=O)C(O)C(O)C(=O)N1CCN(c2ccc(O)cc2)CC1)c1ccc(Br)cc1 (stereo partly drawn) [Compound 215]	1 to 5
C[C@H](NC(=O)C(O)C(O)C(=O)N1Cc2ccccc2C1)c1ccc(O)cc1 (stereo partly drawn) [Compound 216]	< 0.25
C[C@H](NC(=O)C(O)C(O)C(=O)N1Cc2ccccc2C1)c1cccc(O)c1 (stereo partly drawn) [Compound 217]	1 to 5
C[C@H](NC(=O)C(O)C(O)C(=O)N1CCc2ccccc2C1)c1cccc(Br)c1 (stereo partly drawn) [Compound 218]	> 5
C[C@H](NC(=O)C(O)C(O)C(=O)N1CCc2ccccc2C1)c1cccc(I)c1 (stereo partly drawn) [Compound 219]	1 to 5
C[C@H](NC(=O)C(O)C(O)C(=O)N1CCc2ccccc2C1)c1ccc(C(F)(F)F)cc1F (stereo partly drawn) [Compound 220]	> 5
O=C(NCCCCCn1c(C(F)(F)F)nc2ccccc21)C(O)C(O)C(=O)N1CCc2ccccc2C1 (stereo not drawn) [Compound 221]	> 5
